Measurements published in patent US12459912B2 (priority 2020, dated 2025).
Entries after “also recorded” stand apart in the source; their conditions may differ.

Legend:
[1] = target: T1, human 5-HT transporter (hSERT) (Homo sapiens, UniProt P31645); experiment: Human serotonin transporter antagonist radioligand assay ([^3H]imipramine, CHO cells); assay type: binding
T1 construct: expressed in transfected cells; host or cells: CHO cells
Description: We therefore separately measured interactions with these transporters using two additional types of assays: an antagonist radioligand assay of inhibition of the human 5-HT transporter (hSERT) expressed in CHO cells (Tatsumi, M. et al. (1999), Eur. J. Pharmacol., 368: 277-283) and an assay measuring release of [^3H] […] While the former is sensitive to classic reuptake inhibition, the latter can detect the effects of substrates, which also induce release.
Benzothiophene derivatives were evaluated for inhibiting the human 5-HT transporter (hSERT) as expressed in CHO cells using an antagonist radioligand assay (Tatsumi, M. et al. (1999), Eur. J. Pharmacol., 368: 277-283). […] Test compounds were assayed in three trials at […], and 0.94868 μM.
When compounds are substrates for monoamine transporters instead of solely inhibitors, it is known that IC50 values underestimate their potency for interacting with these transporters (Ilic, M. et al. (2020), Frontiers in Pharmacology 11: 673).

Swiss CD 1 mice = experiment: Marble burying test; assay type: in vivo; details: racemic compounds, intraperitoneally 30 minutes before a 30-min session
[2] = target: 5-Hydroxytryptamine (Serotonin) Receptor 1B (5-HT1B) (Homo sapiens, UniProt P28222); experiment: 5-HT1B/cAMP; assay type: cell-based; details: EC50 at 5-HT1B, agonist
Sequence of 5-Hydroxytryptamine (Serotonin) Receptor 1B (5-HT1B) (P28222 whole entry): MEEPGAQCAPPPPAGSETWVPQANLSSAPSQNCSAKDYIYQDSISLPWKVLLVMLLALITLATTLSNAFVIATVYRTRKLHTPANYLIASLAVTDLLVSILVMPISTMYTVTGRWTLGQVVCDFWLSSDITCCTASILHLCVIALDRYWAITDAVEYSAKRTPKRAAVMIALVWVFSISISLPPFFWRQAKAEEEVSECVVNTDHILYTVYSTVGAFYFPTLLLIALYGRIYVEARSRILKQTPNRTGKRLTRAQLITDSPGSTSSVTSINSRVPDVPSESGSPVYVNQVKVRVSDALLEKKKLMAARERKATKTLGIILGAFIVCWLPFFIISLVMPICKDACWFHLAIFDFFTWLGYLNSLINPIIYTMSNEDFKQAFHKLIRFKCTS

human DAT = target: T2, human DAT (Homo sapiens, UniProt Q01959); experiment: hDAT [^3H]dopamine release assay (CHO cells); assay type: cell-based; details: for DAT/SERT ratio: (DAT EC50)^−1/(SERT EC50)^−1, larger numbers indicate higher DAT selectivity; for [^3H]-labeled dopamine release (figure legend): percent of max release compared to a control, as function of concentration
T2 construct: expressed in transfected cells
T2 sequence (Q01959 whole entry): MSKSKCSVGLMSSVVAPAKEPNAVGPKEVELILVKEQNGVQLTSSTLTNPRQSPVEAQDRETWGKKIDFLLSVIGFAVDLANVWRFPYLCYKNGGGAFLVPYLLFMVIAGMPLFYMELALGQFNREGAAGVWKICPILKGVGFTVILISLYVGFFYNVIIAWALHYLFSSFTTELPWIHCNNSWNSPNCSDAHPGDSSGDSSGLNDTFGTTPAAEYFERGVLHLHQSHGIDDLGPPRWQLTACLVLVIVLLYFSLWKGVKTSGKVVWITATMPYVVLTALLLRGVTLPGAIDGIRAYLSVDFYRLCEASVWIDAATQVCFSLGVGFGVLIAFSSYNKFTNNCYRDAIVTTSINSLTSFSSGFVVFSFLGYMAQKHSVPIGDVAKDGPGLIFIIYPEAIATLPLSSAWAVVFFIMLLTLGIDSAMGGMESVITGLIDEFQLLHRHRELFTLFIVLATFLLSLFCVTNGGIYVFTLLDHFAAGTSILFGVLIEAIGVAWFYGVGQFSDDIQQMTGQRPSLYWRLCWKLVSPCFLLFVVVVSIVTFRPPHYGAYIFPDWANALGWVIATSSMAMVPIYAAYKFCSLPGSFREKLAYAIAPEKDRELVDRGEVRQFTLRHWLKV

human SERT = target: T3, human SERT (Homo sapiens, UniProt P31645); experiment: hSERT [^3H]serotonin release assay (CHO cells); assay type: cell-based; details: for [^3H]-labeled serotonin release (figure legend): percent of max release compared to a control, as function of concentration
T3 construct: expressed in transfected cells
T3 sequence (P31645 whole entry): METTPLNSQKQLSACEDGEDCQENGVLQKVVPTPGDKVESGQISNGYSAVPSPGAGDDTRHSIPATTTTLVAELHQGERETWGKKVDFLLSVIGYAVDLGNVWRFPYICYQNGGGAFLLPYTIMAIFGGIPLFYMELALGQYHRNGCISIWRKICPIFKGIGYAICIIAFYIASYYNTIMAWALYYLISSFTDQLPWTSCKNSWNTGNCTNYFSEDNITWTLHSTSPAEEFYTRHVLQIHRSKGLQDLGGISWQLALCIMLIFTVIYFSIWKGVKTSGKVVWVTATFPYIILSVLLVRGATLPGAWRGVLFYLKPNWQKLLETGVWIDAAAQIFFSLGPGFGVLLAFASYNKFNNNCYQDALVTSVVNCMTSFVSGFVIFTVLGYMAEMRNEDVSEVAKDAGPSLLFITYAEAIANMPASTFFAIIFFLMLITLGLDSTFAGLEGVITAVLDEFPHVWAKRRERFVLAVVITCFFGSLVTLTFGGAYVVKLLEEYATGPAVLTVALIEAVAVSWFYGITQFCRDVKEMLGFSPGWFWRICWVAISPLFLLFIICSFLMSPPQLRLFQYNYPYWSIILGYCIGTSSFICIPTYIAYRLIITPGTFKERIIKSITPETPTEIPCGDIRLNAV

MAO-A = MAO-A (Rattus norvegicus, UniProt P21396); details: read-out: IC50 MAO-A; Vallejos et al. 2005; cited from earlier work
Sequence of MAO-A (P21396 whole entry): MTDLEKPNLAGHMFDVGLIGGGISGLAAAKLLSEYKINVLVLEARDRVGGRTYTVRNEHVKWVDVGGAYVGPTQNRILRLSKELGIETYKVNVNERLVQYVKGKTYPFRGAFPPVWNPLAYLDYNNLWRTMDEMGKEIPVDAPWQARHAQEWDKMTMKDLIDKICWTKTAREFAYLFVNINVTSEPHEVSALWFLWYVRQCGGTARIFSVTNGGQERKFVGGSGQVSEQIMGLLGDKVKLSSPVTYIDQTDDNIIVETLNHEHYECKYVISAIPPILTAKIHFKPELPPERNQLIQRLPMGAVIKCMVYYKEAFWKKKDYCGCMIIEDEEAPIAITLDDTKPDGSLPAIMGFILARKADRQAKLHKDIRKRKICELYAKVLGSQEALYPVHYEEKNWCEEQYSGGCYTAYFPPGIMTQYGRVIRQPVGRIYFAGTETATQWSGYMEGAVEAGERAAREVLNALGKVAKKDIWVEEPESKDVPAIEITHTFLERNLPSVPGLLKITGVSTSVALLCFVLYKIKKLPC

[3] = Poos 1967; cited from earlier work
5-HT1B = 5-HT1B (Homo sapiens, UniProt P28222); details: Ray 2010; cited from earlier work
Sequence of 5-HT1B (P28222 whole entry, species assumed): as the sequence (P28222 whole entry) above

neuritogenesis = details: Ly et al. 2018, cited from earlier work
[4] = target: T4, nAChR(a4/b2) (Nicotinic acetylcholine Receptor α4 β2) (Homo sapiens, UniProt P17787+P43681); experiment: cell-based; details: reference compound, Blocker mode; read-out: RC50 (μM), Result Type IC50
T4 construct: expressed in transfected cells
T4 sequence (P43681 29-627 limits assumed): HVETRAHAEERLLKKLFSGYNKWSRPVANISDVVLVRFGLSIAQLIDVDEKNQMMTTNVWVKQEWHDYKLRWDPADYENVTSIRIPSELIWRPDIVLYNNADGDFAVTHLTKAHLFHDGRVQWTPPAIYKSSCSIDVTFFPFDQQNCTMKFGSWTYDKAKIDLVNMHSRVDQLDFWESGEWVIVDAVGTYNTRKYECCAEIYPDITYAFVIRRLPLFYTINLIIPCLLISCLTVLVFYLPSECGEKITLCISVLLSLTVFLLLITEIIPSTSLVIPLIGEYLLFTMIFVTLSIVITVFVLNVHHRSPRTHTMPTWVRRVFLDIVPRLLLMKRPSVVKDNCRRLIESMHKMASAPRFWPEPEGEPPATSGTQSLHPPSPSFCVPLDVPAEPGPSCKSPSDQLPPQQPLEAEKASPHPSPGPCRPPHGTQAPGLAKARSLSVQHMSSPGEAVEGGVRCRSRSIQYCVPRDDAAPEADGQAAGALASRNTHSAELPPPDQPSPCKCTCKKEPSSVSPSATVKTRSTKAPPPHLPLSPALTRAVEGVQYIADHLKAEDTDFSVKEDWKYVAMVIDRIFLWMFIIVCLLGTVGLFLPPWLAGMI
T4 sequence (P17787 26-502): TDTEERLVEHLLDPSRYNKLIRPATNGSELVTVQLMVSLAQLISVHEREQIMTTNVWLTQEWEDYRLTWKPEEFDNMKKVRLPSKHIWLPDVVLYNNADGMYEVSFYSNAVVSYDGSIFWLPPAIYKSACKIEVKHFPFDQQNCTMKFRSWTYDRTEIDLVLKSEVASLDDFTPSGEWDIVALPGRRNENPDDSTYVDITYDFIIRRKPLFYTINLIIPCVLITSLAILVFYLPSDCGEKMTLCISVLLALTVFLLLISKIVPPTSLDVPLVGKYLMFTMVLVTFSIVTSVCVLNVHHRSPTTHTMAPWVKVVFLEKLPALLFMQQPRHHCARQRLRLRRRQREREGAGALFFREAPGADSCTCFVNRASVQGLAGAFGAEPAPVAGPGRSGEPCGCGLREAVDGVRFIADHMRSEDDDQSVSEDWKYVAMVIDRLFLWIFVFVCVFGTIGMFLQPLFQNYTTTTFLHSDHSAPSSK

[5] = target: T5, GABAA (Gamma-aminobutyric acid Receptor A); assay type: cell-based; details: reference compound, Blocker mode; read-out: RC50 (μM), Result Type IC50
T5 construct: other: opener

T1 sequence (P31645 whole entry): as the sequence (P31645 whole entry) above

`CNC(C)Cc1ccc2sccc2c1` (stereo not shown) showed an IC50 [1] of 250 nM and a Ki [1] of 120 nM.

Work on `CNC(C)C(=O)c1ccc2sccc2c1` (stereo not shown) yielded an IC50 [1] of 2000 nM and a Ki [1] of 900 nM.

With `CCNC(C)Cc1ccc2sccc2c1` (stereo not shown) the IC50 [1] was 100 nM and the Ki [1] was 50 nM.

In the case of `CNC(C)C(=O)c1ccc2sccc2c1.Cl` (stereo not shown) [Bk-5-MAPBT, 1-(benzo[b]thiophen-5-yl)-2-(methylamino) propan-1-one hydrochloride], the “anxiolytic effect (marbles left unburied versus placebo)” value (Swiss CD 1 mice) is reported as “dose-dependent anxiolytic effects”, the EC50 [2] is reported as 59 nM and the EC50 (human DAT) is reported as 194 nM. For the same molecule, the DAT/SERT ratio (human DAT) was 0.52, the “[^3H]-labeled dopamine release (figure legend)” value (“[^3H]-labeled dopamine release” below) (human DAT) was “rapidly induces extracellular dopamine and serotonin release” and the EC50 (human SERT) was 101 nM. The “[^3H]-labeled serotonin release (figure legend)” value (“[^3H]-labeled serotonin release” for short) (human SERT) was “rapidly induces extracellular dopamine and serotonin release”.

In the case of `CC(N)Cc1csc2ccccc12` (stereo not shown) [Compound 3-APBT, 1-(1-benzothiophen-3-yl)propan-2-amine], the IC50 (MAO-A) is listed as 16.2 ± 0.4 µM and the effect on appetite [3] is listed as “acted to reduce appetite”.

For `CCNC(C)Cc1ccc2sccc2c1.Cl` (stereo not shown) [Compound 5-EAPBT, 1-(benzothiophen-5-yl)-N-ethylpropan-2-amine hydrochloride], the “anxiolytic effect (marbles left unburied versus placebo)” value (Swiss CD 1 mice) was “dose-dependent anxiolytic effects”, the EC50 (human DAT) was 98 nM and the DAT/SERT ratio (human DAT) was 0.54. The “dopamine release Emax in comparison to the reference releaser amphetamine” value (human DAT; high concentrations, 100 μM amphetamine as reference, hydrochloride) was “partial DAT substrate; also recorded: Emax below that of the reference releaser”, the “[^3H]-labeled dopamine release” value (human DAT) was “rapidly induces extracellular dopamine and serotonin release” and the EC50 (human SERT) was 53 nM. For the same molecule, the “[^3H]-labeled serotonin release” value (human SERT) was “rapidly induces extracellular dopamine and serotonin release”.

For `CNC(C)Cc1ccc2sccc2c1.Cl` (stereo not shown) [Compound 5-MAPBT, 1-(benzothiophen-5-yl)-N-methylpropan-2-amine hydrochloride], the “anxiolytic effect (marbles left unburied versus placebo)” value (Swiss CD 1 mice) was “dose-dependent anxiolytic effects”, the EC50 [2] was 38 nM and the EC50 (human DAT) was 129 nM. The DAT/SERT ratio (human DAT) was 0.18, the “[^3H]-labeled dopamine release” value (human DAT) was “rapidly induces extracellular dopamine and serotonin release” and the EC50 (human SERT) was 23 nM. For the same molecule, the “[^3H]-labeled serotonin release” value (human SERT) was “rapidly induces extracellular dopamine and serotonin release”.

For `CNC(C)Cc1ccc2ccsc2c1.Cl` (stereo not shown) [Compound 6-MAPBT, 1-(benzothiophen-6-yl)-N-methylpropan-2-amine hydrochloride], the “anxiolytic effect (marbles left unburied versus placebo)” value (Swiss CD 1 mice) was “dose-dependent anxiolytic effects”, the EC50 [2] was 24 nM and the EC50 (human DAT) was 71 nM. For the same molecule, the DAT/SERT ratio (human DAT) was 0.80, the “[^3H]-labeled dopamine release” value (human DAT) was “rapidly induces extracellular dopamine and serotonin release” and the EC50 (human SERT) was 57 nM. For the same molecule, the “[^3H]-labeled serotonin release” value (human SERT) was “rapidly induces extracellular dopamine and serotonin release”.

For `CNC(C)Cc1ccc2c(c1)OCO2` (stereo not shown) [MDMA], the “binding to 5-HT1B” value (5-HT1B) is listed as “does not bind directly”, the “Emax for promoting neuritogenesis relative to ketamine” value (neuritogenesis) is listed as “approximately twice that of ketamine” and the EC50 (neuritogenesis; read-out: EC50 for promoting neuritogenesis) is listed as 7.41 nM.

Work on `CNC(C)Cc1ccc2ccsc2c1` (stereo not shown) [drawing 525] yielded an IC50 [1] of 1500 nM and a Ki [1] of 680 nM.

In the case of “Dihydro-AY-erythroidine [reference compound]”, the IC50 [4] is reported as 0.682 µM.

For Picrotoxin [reference compound], the IC50 [5] was 2.78 µM.
